In patent US20210123066A1, “METHODS OF REGENERATION AND TRANSFORMATION OF STEVIA PLANT AND TRANSGENIC STEVIA PLANTS HAVING ENHANCED STEVIOL GLYCOSIDES CONTENT” (TEMASEK LIFE SCIENCES LABORATORY LIMITED, priority 2018, published 2021):

Tested on: SrUGT76G1
Test: In vitro UDP-glucosyltransferase activity assay with GST-SrUGT76G1
Type: biochemical, Stevia rebaudiana
Settings: for product formed by GST-SrUGT76G1 from the acceptor (TLC): 50 μM substrate, UDP-glucose donor, 30° C., 2 h; for product formed by GST-UGT76G1 from the acceptor (HPLC): 5 mM UDP-glucose, 16 h
Description: Expression of recombinant UGT76G1 and UDP-glucosyltransferase activity assay: The full-length cDNA of SrUGT76G1 was cloned into pDEST15 to obtain GST-tag fused protein. The resulting expression vector was transformed into E. Coli BL21 (DE3)-derived Rosetta strain (Novagen) and grown under appropriate antibiotics. GST-tagged SrUGT76G1 recombinant protein was purified by glutathione agarose beads (ThermoFisher Scientific). About 1 μg of recombinant protein was used for enzyme assay with 50 μM of the substrate (dulcoside A or Reb A) in an assay buffer (50 mM HEPES, pH 7.5, 3 mM MgCl2, 10 μg/ml Bovine Serum Albumin). To initiate the reaction, a 1 mM UDP-glucose mixture (997.5 μM UDP-glucose and […] UDP-[^14C]-glucose, 2.78 kBq, Amersham Biosciences) was added. In vitro glucosyltransferase activity assays were performed as described by Richman et al. (2005). The assay was carried out at 30° C. for 2 h and extracted twice with 100 μl of water-saturated 1-butanol. Pooled fractions were dried in a vacuum centrifuge and resuspended in 10 μl water-saturated 1-butanol for thin layer chromatography (TLC) analysis. The TLC was performed with 10 μl of reaction products using chloroform:methanol:water (15:10:2 v/v/v) as the mobile phase on a silica gel-coated TLC plate (Fluka) in a mobile phase saturated glass chamber. SGs standards were run under the same condition. After air-drying, the image on the TLC plate was captured on a storage phosphor screen in a phosphorimager cassette (Bio-Rad) for 2-3 d and visualized on a Typhoon 9200 imager (Amersham Biosciences).
HPLC analysis of in vitro glucosyltransferase activity assay mixture: In vitro glucosyltransferase activity assay was performed as indicated in the TLC analysis, but 5 mM of UDP-glucose was used without UDP-[^14C]-glucose and the incubation time was increased to 16 h. Samples were extracted 3 times with water-saturated 1-butanol and dried completely in a vacuum centrifuge. Dried samples were dissolved in MeOH for UHPLC analysis in accordance with the method mentioned for SGs content analysis.

| SMILES | product formed by GST-SrUGT76G1 from the acceptor (TLC) | product formed by GST-UGT76G1 from the acceptor (HPLC) |
| --- | --- | --- |
| C=C1C[C@@]23CC[C@H]4[C@@](C)(CCC[C@@]4(C)C(=O)O[C@@H]4O[C@H](CO)[C@@H](O)[C@H](O)[C@H]4O)[C@@H]2CC[C@]1(O[C@@H]1O[C@H](CO)[C@@H](O)[C@H](O)[C@H]1O[C@@H]1O[C@H](CO)[C@@H](O)[C@H](O)[C@H]1O)C3 [stevioside] | Reb A | Reb A |
| C=C1C[C@@]23CC[C@H]4[C@@](C)(CCC[C@@]4(C)C(=O)O[C@@H]4O[C@H](CO)[C@@H](O)[C@H](O)[C@H]4O)[C@@H]2CC[C@]1(O[C@@H]1O[C@H](CO)[C@@H](O)[C@H](O[C@@H]2O[C@H](CO)[C@@H](O)[C@H](O)[C@H]2O)[C@H]1O[C@@H]1O[C@H](CO)[C@@H](O)[C@H](O)[C@H]1O)C3 [Reb A, rebaudioside A] |  | Reb I |
| C=C1C[C@@]23CC[C@H]4[C@@](C)(CCC[C@@]4(C)C(=O)O[C@@H]4O[C@H](CO)[C@@H](O)[C@H](O)[C@H]4O)[C@@H]2CC[C@]1(O[C@@H]1O[C@H](CO)[C@@H](O)[C@H](O)[C@H]1O[C@@H]1O[C@@H](C)[C@H](O)[C@@H](O)[C@H]1O)C3 [dulcoside A] | Reb C | Reb C |
